Results from patent US6544994B2, “Pharmaceutical preparation for treating or preventing cardiovascular or neurological disorders by modulating of the activity of nitric oxide synthase” (Eprov AG, priority 2000, dated 2003).
Where two headings read alike, the source gives them in different places.

Tests used:
eNOS [1] = target: T1, eNOS (Bos taurus, UniProt P29473); assay: NO-production by eNOS, [3H]arginine to [3H]citrulline conversion; format: biochemical, bovine; parameters: made in house; host or cells: E. coli; conditions: 100 μM final
Description: 5-methyl-(6 S)-tetrahydrofolic acid, and its stereoisomer, 5-methyl-(6R)-tetrahydrofolic acid were used in purities>99.8%. The spin trap, 5-diethoxy-phosphoryl-5-methyl-1-pyrroline-N-oxide (DEPMPO) and all other used chemicals are commercially available.
NOS activity was determined by quantifying the conversion of L-[2,3,4.5-^3H]arginine into L-[2,3,4,5-^3H]-citrulline. […] All measurements were performed in triplicate. After correction for nonspecific activity, eNOS activity was calculated from the percent conversion of [^3H]-arginine into [^3H]-citrulline and expressed as nmoles per mg protein per min.

[2] = test system: microvascular endothelial bEND3 cells; assay: NO production by endothelial cells, nitrite content in supernatant; format: cell-based; conditions: preincubation 24 hours; for acetylcholine-induced nitrite production: 5-methyltetrahydrofolic acid 1 and 10 μM, sepiapterin 100 μM, p<0.05 vs. saline
Description: The NO production by endothelial cells was assessed by quantification of the nitrite content in the supernatant with a commercially available fluorimetric kit (Cayman Chemicals). Acetylcholine-induced NO production is presented as the difference between stimulated minus the unstimulated nitrite content.

eNOS [3] = target: T1, eNOS; assay: Superoxide production by eNOS, DEPMPO spin trap EPR
[4] = Competitive superoxide trapping (CST) with DEPMPO in HX/XO system, EPR; format: biochemical; conditions: for k/kd, reaction rate with superoxide relative to reference spin trap DEPMPO / k, reaction rate with superoxide: pH 7.4, 37° C.; for k, reaction rate with superoxide: based on kd=80 (Ms)^−1; for superoxide scavenging, times less potent/slower than ascorbic acid: relative to ascorbic acid
Description: The EPR spectra were recorded at 37° C. on a modified Bruker ESP 300. Spin trap experiments were performed with both HX/XO and eNOS. For HX/XO the solution contained 0.5 mM hypoxanthine, 12.5 mU/ml xanthine oxidase and 50 mM DEPMPO in phosphate buffer (pH 7.4). The eNOS assay contained 250 nM eNOS dimers (0.065 mg protein/ml), 0.5 mM NADPH, 10 μM L-arginine, 1 mM CaCl2, 300 U/ml catmodulin and 50 mM DEPMPO in phosphate buffer (pH 7.4).
The reaction rates with superoxide are given by k for the tested substance and kd for the reference compound DEPMPO respectively.

xanthine oxidase (XO) = xanthine oxidase (XO) (Homo sapiens, UniProt P47989)
xanthine oxidase (XO), sequence (P47989 whole entry, species assumed): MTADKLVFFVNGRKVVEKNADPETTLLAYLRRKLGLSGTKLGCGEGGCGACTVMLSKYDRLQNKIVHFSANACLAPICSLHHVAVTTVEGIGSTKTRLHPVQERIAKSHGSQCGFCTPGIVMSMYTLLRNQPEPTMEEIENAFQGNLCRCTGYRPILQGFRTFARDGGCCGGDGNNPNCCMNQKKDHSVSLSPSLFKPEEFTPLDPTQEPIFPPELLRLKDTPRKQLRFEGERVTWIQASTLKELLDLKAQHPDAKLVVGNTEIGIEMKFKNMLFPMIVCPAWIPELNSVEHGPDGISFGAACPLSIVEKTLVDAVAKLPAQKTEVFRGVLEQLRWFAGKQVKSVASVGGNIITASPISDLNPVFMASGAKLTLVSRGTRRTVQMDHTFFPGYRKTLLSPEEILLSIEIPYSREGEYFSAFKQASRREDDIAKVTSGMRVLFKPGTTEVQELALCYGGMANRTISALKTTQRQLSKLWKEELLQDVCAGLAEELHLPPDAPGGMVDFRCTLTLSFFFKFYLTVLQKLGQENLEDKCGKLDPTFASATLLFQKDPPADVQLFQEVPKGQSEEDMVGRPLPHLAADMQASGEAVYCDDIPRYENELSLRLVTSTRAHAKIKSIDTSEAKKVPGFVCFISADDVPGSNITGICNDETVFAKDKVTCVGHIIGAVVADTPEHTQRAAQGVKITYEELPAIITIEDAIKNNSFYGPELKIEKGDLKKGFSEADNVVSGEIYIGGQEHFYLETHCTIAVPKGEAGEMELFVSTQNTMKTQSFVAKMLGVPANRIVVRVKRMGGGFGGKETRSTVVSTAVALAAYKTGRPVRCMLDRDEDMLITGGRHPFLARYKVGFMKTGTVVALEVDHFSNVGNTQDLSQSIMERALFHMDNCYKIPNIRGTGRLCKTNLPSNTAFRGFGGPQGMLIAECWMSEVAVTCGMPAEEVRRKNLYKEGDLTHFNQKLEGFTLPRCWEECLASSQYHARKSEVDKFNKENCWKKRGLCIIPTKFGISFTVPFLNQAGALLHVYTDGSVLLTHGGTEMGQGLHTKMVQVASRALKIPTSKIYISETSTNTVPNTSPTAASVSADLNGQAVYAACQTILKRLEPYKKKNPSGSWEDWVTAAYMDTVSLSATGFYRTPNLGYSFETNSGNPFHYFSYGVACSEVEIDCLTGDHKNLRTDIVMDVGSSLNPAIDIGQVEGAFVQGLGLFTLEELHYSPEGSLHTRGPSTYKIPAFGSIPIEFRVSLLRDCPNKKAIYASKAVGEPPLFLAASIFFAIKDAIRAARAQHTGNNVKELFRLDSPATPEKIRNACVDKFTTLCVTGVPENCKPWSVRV
Source text: Assessment of urate levels (assessed with a uricase-hydrogen peroxide assay) is a standard method to determine enzymatic activity of XO. However, reductive substance, like vitamin C or NUHF, are known to interfere with the urate determination.

[5] = cited from earlier work
[6] = cited from earlier work; remark: listed apart in the source
[7] = pterin-repleted eNOS, p<0.05 vs. BH4 alone

CN1c2c(nc(N)[nH]c2=O)NC[C@@H]1CNc1ccc(C(=O)N[C@@H](CCC(=O)O)C(=O)O)cc1 [5-methyl-(6 S)-tetrahydrofolic acid]
NO production (eNOS [1]; pterin-free eNOS): no significant effect on NO production
NO production (eNOS [1]; [7]): significant increase in NO production
acetylcholine-induced nitrite production [2]: significant-further increase in acetylcholine-induced nitrite production
effect on rate of superoxide production by pterin-free eNOS (eNOS [3]; pterin-free eNOS): does not affect the rate of superoxide production
radical adduct formation (eNOS [3]; pterin-free eNOS, 25 μM): does not cause significant changes in radical adduct formation
rate of DEPMPO adduct formation (eNOS [3]; pterin-repleted eNOS): very strong reduction in the rate of DEPMPO adduct formation
k/kd, reaction rate with superoxide relative to reference spin trap DEPMPO ([4]; HX/XO): about 175
k/kd, reaction rate with superoxide relative to reference spin trap DEPMPO ([4]; HX/XO, listed as L-MTHF): 150
k, reaction rate with superoxide [4]: 12000 M/s
superoxide scavenging, times less potent/slower than ascorbic acid [4]: about 20 fold
urate level after 60 minutes of incubation (xanthine oxidase (XO); 50 μM added at the beginning of the incubation, basal 128±20 μM): 48.7 ± 1.7 µM
urate level after 60 minutes of incubation (xanthine oxidase (XO); 50 μM added at the end of the incubation, just prior to urate assessment): 49.9 ± 1.9 µM

CN1c2c(nc(N)[nH]c2=O)NC[C@H]1CNc1ccc(C(=O)N[C@@H](CCC(=O)O)C(=O)O)cc1 [5-methyl-(6R)-tetrahydrofolic acid]
NO production (eNOS [1]; pterin-free eNOS): no significant effect on NO production
NO production (eNOS [1]; [7]): significant increase in NO production
effect on rate of superoxide production by pterin-free eNOS (eNOS [3]; pterin-free eNOS): does not affect the rate of superoxide production
rate of DEPMPO adduct formation (eNOS [3]; pterin-repleted eNOS): very strong reduction in the rate of DEPMPO adduct formation
k/kd, reaction rate with superoxide relative to reference spin trap DEPMPO ([4]; HX/XO): about 175
k/kd, reaction rate with superoxide relative to reference spin trap DEPMPO ([4]; HX/XO, listed as D-MTHF): 150
k, reaction rate with superoxide [4]: 12000 M/s
superoxide scavenging, times less potent/slower than ascorbic acid [4]: about 20 fold

CN1c2c(nc(N)[nH]c2=O)NCC1CNc1ccc(C(=O)N[C@@H](CCC(=O)O)C(=O)O)cc1 (stereo partly shown) [5-methyltetrahydrofolic acid, 5-methyl-5,6,7,8-tetrahydrofolic acid]
systemic plasma concentrations of 5-methyltetrahydrofolic acid ([5]; intra-arterial infusion): 250 nM
nitrite release ([2]; unstimulated endothelial cells): did not affect nitrite release
amount of superoxide adducts (eNOS [3]; partially BH4-repleted eNOS, 25 μM): substantial reduction in the amount of superoxide adducts
factor by which superoxide production by eNOS is reduced (eNOS [3]; pterin-repleted eNOS, 50 μM, estimated from figure): 2 fold
superoxide scavenging, times less potent/slower than ascorbic acid [4]: about 20 fold
effect on rate of urate production by XO (xanthine oxidase (XO)): does not affect the rate of urate production

N=C(N)NCCC[C@H](N)C(=O)O [arginine, L-arginine]
k/kd, reaction rate with superoxide relative to reference spin trap DEPMPO ([4]; HX/XO): < 10^−2
effect on formation of DEPMPO adducts ([4]; HX/XO, up to 100 mM): did not affect the formation of DEPMPO adducts
k, reaction rate with superoxide [4]: neglibile

O=C1O[C@H]([C@@H](O)CO)C(O)=C1O [ascorbic acid, reference compound]
k, reaction rate with superoxide, literature value [6]: 270000 M/s
k/kd, reaction rate with superoxide relative to reference spin trap DEPMPO ([4]; HX/XO): 4400
k, reaction rate with superoxide [4]: 350000 M/s

Nc1nc2ncc(CNc3ccc(C(=O)N[C@@H](CCC(=O)O)C(=O)O)cc3)nc2c(=O)[nH]1 [folic acid, reference compound]
systemic plasma concentrations of 5-methyltetrahydrofolic acid ([5]; standard oral suppletion of folic acid 5 mg p.o.): ≤ 150 nM

C[C@H](O)C(=O)C1=Nc2c(nc(N)[nH]c2=O)NC1 [sepiapterin, reference compound]
acetylcholine-induced nitrite production [2]: significant-further increase in acetylcholine-induced nitrite production
